Assay results taken from PubChem BioAssay (NCI).
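Where inhibition never reached the appropriate level, the endpoint shown equals the highest concentration tested. Otherwise, values were interpolated linearly from a five-concentration, 48-hour dose response in 96-well plates. Here, GI50 denotes the concentration required for 50% inhibition of growth. TGI is the concentration that stops growth completely.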

How the values were obtained:
Assay in all cases: inhibition of tumour cell growth, NCI panel, 48 h
CAKI-1 renal = test system: CAKI-1 renal
DU-145 prostate = test system: DU-145 prostate
MDA-MB-435 = test system: MDA-MB-435
MDA-N = test system: MDA-N
M14 melanoma = test system: M14 melanoma
HT29 colon = test system: HT29 colon
HS 578T breast = test system: HS 578T breast
ACHN renal = test system: ACHN renal
786-0 renal = test system: 786-0 renal
TK-10 renal = test system: TK-10 renal
OVCAR-4 ovarian = test system: OVCAR-4 ovarian

Compound	TGI (CAKI-1 renal) [µM]	TGI (DU-145 prostate) [µM]	TGI (MDA-MB-435) [µM]	TGI (MDA-N) [µM]	TGI (M14 melanoma) [µM]	TGI (HT29 colon) [µM]	TGI (HS 578T breast) [µM]	TGI (ACHN renal) [µM]	TGI (786-0 renal) [µM]	TGI (TK-10 renal) [µM]	TGI (OVCAR-4 ovarian) [µM]	GI50 (CAKI-1 renal) [µM]	GI50 (DU-145 prostate) [µM]	GI50 (MDA-MB-435) [µM]	GI50 (M14 melanoma) [µM]	GI50 (HT29 colon) [µM]	GI50 (HS 578T breast) [µM]	GI50 (ACHN renal) [µM]	GI50 (TK-10 renal) [µM]
C=CCSSCC=C	> 100	> 100	> 84.7	> 80.2	> 100	> 100	97.4	> 100	> 56.5	> 100	> 100								
COc1ccc(NC(=S)N/N=C(\C)c2nc3ncccc3[nH]2)cc1	> 100	> 100	> 100	> 100		> 100	> 100	> 100	> 100	21.1	> 100								
O=C1OC2CC=CC1C2 (stereo not given)						> 100					> 100								
CC(C)(C)c1ccc(/C=N/NC(=O)CSCC(=O)N/N=C/c2ccc(C(C)(C)C)cc2)cc1		> 100			3.89	3.87	7.61	13.5	4.4	16.6	> 100								
O=C(COc1ccc(Cl)c(Cl)c1)N(Cc1ccccc1)Cc1ccc[n+](Cc2ccc(Cl)cc2S(=O)(=O)F)c1	> 100	> 100	> 100		> 100	> 100	> 100	> 100	> 100	> 100	> 100								
O=C1CCCC2C3CC(CN12)C1CCCCN1C3 (stereo not given)	> 100	> 100	> 100	> 100	> 100	> 100	> 100	> 100	> 100	> 100	> 100								
C=C1C(=O)OC2CC1CCC1(C)OC1CCC(C)=CCCC2(C)O (stereo not given)	7.7					10.7					11.9								
CN1CC(CNC(=O)OCc2ccccc2)CC2c3cccc4c3c(cn4C)CC21 (stereo not given)	3.65	14.4	3.53		4.68	3.27	6.96	5.58		3.67		1.68	3.88	1.81	2.14	1.4	1.99	2.29	1.92
Cc1cc(C)nc(SCCc2cccc[n+]2C)n1	> 100	> 100	> 100	> 100	> 100	> 100	> 100	> 100	> 100	> 100	> 100								
CC(=O)NNC(=O)C1CCCCN1 (stereo not given)	> 100	> 100	> 100	> 100	> 100	> 100	> 100	> 100	> 100	> 100	> 100								
O=C1OCc2cc3cc4c(cc3c(-c3ccc5c(c3)OCO5)c21)OCO4 (tested in a mixture with another compound)	86.7	55.2	> 100	19.2	32	> 100	80.9			50.8	> 100								
Cl/C(=C\C=Nc1ccc(I)cc1)c1ccc2ccccc2c1	29	> 61.4	28		31.5	> 100	> 87.7	29.9	40.7	49.6	46.5								
CC[C@]12C=CCN3CC[C@@]4(c5cc(Br)c(OC)cc5N(C)[C@H]4[C@@](O)(C(=O)N[C@@H](Cc4ccc(O)cc4)C(=O)OC)[C@@H]1O)[C@@H]32	77.9	> 100	35.8	49.1	95.1	30	54.2	> 100	> 100	79.5	40								
COc1c(OC/C=C(\C)CCC=C(C)C)ccc2ccc(=O)oc12	> 100	> 100	> 100	> 100	> 100	> 100	> 100	> 100	> 100	> 100	> 100								
O=C(Nc1ccc(Cl)c(Cl)c1)N1N=C2c3ccccc3CCC2C1c1ccc(Cl)cc1 (stereo not given)	> 100	> 100	> 100	> 100	> 100	> 100	> 100	> 100	> 100	> 100	> 100								
COc1cc(/C=C/C(=O)CC(=O)/C=C/c2ccc(O)c(OC)c2)ccc1O	25.1	29.7	12.1		16	32.4	58.5	28.9	10.8	30.6	36.6								
Br/C(=N\Nc1nn[nH]n1)c1ccncc1	> 100	> 100	> 100	> 100	> 100	> 100	> 100	> 100	> 100	> 100	> 100								
c1ccc(C[N+]23CN4CN(CN(C4)C2)C3)cc1	> 100	91.8	45.5	> 100	39.8	> 100	> 100	87.9	46.8	> 100	> 100								
C=CCNS(=O)(=O)c1ncnc2nc[nH]c12	> 100	> 100	> 100	> 100	> 100	> 100	> 100	> 100	> 100	> 100	> 100								
COc1cc(S(=O)(=O)Nc2nc(-c3ccc(N4C(=O)/C(=C/c5ccccc5[N+](=O)[O-])N=C4c4ccccc4)cc3)cs2)ccc1Cl	> 100	> 100	> 100	> 100	> 100	> 100		> 100	> 100	> 100	> 100								
SC1CCCN(Cc2ccccc2)C1 (stereo not given)	> 100	> 100	> 100	> 100	36.9	45.8	> 100	> 100	> 100	> 100	> 100								
Cn1c2c3ccc(Cl)cc3nc-2c(Cl)c2ccccc21	32.1	33.4	38.2	46.2	61.3	49.9	> 100	32	33.9	32.5	35.5								
CCCC(=O)O.CCCC(=O)O.CCCC(=O)O.CCCC(=O)O.[Rh].[Rh]	0.106	0.491			0.195	0.126	13	0.212				0.035	0.181		0.0569	0.0334	0.157	0.0451	
CC(C)(C)OC(=O)NC1CCC(C(C)(C)C)CC1 (stereo not given)						> 87.3					> 100								
O=C(/C=C/c1ccccc1)N1CCCCC1	> 100	> 100	> 100	> 100	> 100	> 100	> 100	> 100	> 100	> 100	> 100								
O=C(Oc1ccc(Cl)cc1[N+](=O)[O-])c1ccccc1					> 100	> 100		> 100		> 100	> 100								
